pIC50: −log10 of the molar value.
Key:
Format in all cases: biochemical
[1] = target: T1, catalytic domain of MMP-13 enzyme (Homo sapiens, UniProt P45452); assay: Assay for determining MMP-13 inhibition (fluorescent substrate); details: read-out: MMP-13 Activity (IC50 MMP-13), Group
T1 construct: 50 nM stock solution of catalytic domain of MMP-13 enzyme; purchased Invitek (Berlin) 30100812
Description: Assay for Determining MMP-13 Inhibition
The typical assay for MMP-13 activity is carried out in assay buffer comprised of 50 mM Tris, pH 7.5, 150 mM NaCl, 5 mM CaCl2 and 0.05% Brij-35. Different concentrations of tested compounds are prepared in assay buffer in 50 μL aliquots. 10 μL of a 50 nM stock solution of catalytic domain of MMP-13 enzyme (produced by Alantos or commercially available from Invitek (Berlin), Cat.#30100812) is added to the compound solution. The mixture of enzyme and compound in assay buffer is thoroughly mixed and incubated for 10 min at room temperature. Upon the completion of incubation, the assay is started by addition of 40 μL of a 12.5 μM stock solution of MMP-13 fluorescent substrate (Calbiochem, Cat. No. 444235). The time-dependent increase in fluorescence is measured at the 320 nm excitation and 390 nm emission by automatic plate multireader. The IC50 values are calculated from the initial reaction rates.

activated MMP-8 enzyme = target: T2, activated MMP-8 enzyme (Homo sapiens, UniProt P22894); assay: Assay for determining MMP-8 inhibition (fluorescent substrate); details: read-out: MMP-8 Activity (IC50 MMP-8), Group
T2 construct: purchased Calbiochem 444229
Description: Assay for Determining MMP-8 Inhibition
The typical assay for MMP-8 activity is carried out in assay buffer comprised of 50 mM Tris, pH 7.5, 150 mM NaCl, 5 mM CaCl2 and 0.05% Brij-35. Different concentrations of tested compounds are prepared in assay buffer in 50 μL aliquots. 10 μL of a 50 nM stock solution of activated MMP-8 enzyme (Calbiochem, Cat. No. 444229) is added to the compound solution. The mixture of enzyme and compound in assay buffer is thoroughly mixed and incubated for 10 min at 37° C. Upon the completion of incubation, the assay is started by addition of 40 μL of a 10 μM stock solution of OmniMMP fluorescent substrate (Biomol, Cat. No. P-126). The time-dependent increase in fluorescence is measured at the 320 nm excitation and 390 nm emission by an automatic plate multireader at 37° C. The IC50 values are calculated from the initial reaction rates.

[2] = target: T3, catalytic domain of MMP-3 enzyme (Homo sapiens, UniProt P08254); assay: Assay for determining MMP-3 inhibition (fluorescent substrate); details: read-out: MMP-3 Activity (IC50 MMP-3), Group
T3 construct: 100 nM stock solution of the catalytic domain of MMP-3 enzyme (Biomol, Cat. No. SE-1 09); purchased Biomol SE-1 09
Description: Assay for Determining MMP-3 Inhibition
The typical assay for MMP-3 activity is carried out in assay buffer comprised of 50 mM MES, pH 6.0, 10 mM CaCl2 and 0.05% Brij-35. Different concentrations of tested compounds are prepared in assay buffer in 50 μL aliquots. 10 μL of a 100 nM stock solution of the catalytic domain of MMP-3 enzyme (Biomol, Cat. No. SE-1 09) is added to the compound solution. The mixture of enzyme and compound in assay buffer is thoroughly mixed and incubated for 10 min at room temperature. Upon the completion of incubation, the assay is started by addition of 40 μL of a 12.5 μM stock solution of NFF-3 fluorescent substrate (Calbiochem, Cat. No. 480455). The time-dependent increase in fluorescence is measured at the 330 nm excitation and 390 nm emission by an automatic plate multireader. The IC50 values are calculated from the initial reaction rates.

T2 sequence (P22894 101-467): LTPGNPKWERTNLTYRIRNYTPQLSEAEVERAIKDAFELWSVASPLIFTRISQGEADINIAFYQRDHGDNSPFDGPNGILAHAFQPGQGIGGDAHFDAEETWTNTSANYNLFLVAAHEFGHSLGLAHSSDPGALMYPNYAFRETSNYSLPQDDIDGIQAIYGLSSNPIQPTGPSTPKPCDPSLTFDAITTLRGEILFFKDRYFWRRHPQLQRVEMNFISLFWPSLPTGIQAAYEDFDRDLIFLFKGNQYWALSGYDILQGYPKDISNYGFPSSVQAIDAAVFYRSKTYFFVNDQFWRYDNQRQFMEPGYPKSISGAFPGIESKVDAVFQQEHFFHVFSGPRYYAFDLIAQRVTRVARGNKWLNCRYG
T3 sequence (P08254 100-272 limits assumed): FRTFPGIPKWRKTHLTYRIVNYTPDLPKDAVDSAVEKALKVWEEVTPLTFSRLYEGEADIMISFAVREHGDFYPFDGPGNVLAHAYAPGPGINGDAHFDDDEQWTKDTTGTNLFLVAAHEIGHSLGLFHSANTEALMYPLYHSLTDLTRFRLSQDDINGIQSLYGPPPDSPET

SMILES | pIC50 [1] | pIC50 (activated MMP-8 enzyme) | pIC50 [2]
O=C1COc2ccc(CNC(=O)c3nc(-c4ccccc4)cc(=O)[nH]3)cc2N1 [1/1] | 4.70 to 7.00 |  | 
O=C1COc2ccc(CNC(=O)c3nc4ccc(F)cc4c(=O)[nH]3)c(F)c2N1 [1/23] | 4.70 to 7.00 |  | 
CN1C(=O)COc2ccc(CNC(=O)c3nc4ccccc4c(=O)[nH]3)cc21 [1/8] | 4.70 to 7.00 | 4.70 to 6.60 | 
Cc1ccc2nc(NC(=O)Cc3ccc4c(c3)NC(=O)CO4)[nH]c(=O)c2c1 [1/34] | 4.70 to 7.00 |  | 
O=C1COc2ccc(CNC(=O)c3nc4sc5c(c4c(=O)[nH]3)CCC3(CCN(C(=O)OCc4ccccc4)CC3)C5)cc2N1 [Example 1] | 4.70 to 7.00 |  | 
Cc1sc2nc(C(=O)NCc3ccc4c(c3F)NC(=O)CO4)[nH]c(=O)c2c1C [1/24] | 4.70 to 7.00 |  | 
CC(NC(=O)c1nc2ccccc2c(=O)[nH]1)c1ccc2c(c1)NC(=O)CO2 (stereo not drawn) [1/5] | 4.70 to 7.00 |  | 
O=C1COc2ncc(CNC(=O)c3nc4ccccc4c(=O)[nH]3)cc2N1 [1/13] | 4.70 to 7.00 |  | 
O=C1COc2cc(F)c(CNC(=O)c3nc4ccccc4c(=O)[nH]3)cc2N1 [1/25] | > 7.00 |  | 
Cc1csc2nc(C(=O)NCc3ccc4c(c3)NC(=O)CO4)[nH]c(=O)c12 [1/9] | > 7.00 | > 6.60 | > 6.60
O=C(NCc1ccc2c(c1)-n1c(noc1=O)CO2)c1nc2ccccc2c(=O)[nH]1 [1/30] | 4.70 to 7.00 |  | 
Cc1sc2nc(C(=O)NCc3ccc4c(c3)-n3cnnc3CO4)[nH]c(=O)c2c1C [1/19] | > 7.00 |  | 
O=C1COc2c(F)c(F)cc(CNC(=O)c3nc4ccccc4c(=O)[nH]3)c2N1 [1/27] | 4.70 to 7.00 |  | 
Cc1sc2nc(C(=O)NCc3cc4c(cc3F)OCC(=O)N4)[nH]c(=O)c2c1C [1/26] | > 7.00 | 4.70 to 6.60 | 
O=C(NCc1ccc2c(c1)NC(=S)CO2)c1nc2ccccc2c(=O)[nH]1 [1/16] | > 7.00 | 4.70 to 6.60 | 
Cc1nc(C(=O)NCc2ccc3c(c2)NC(=O)CO3)[nH]c(=O)c1C [1/2] | > 7.00 |  | 
O=C1COc2c(F)cc(CNC(=O)c3nc4ccccc4c(=O)[nH]3)cc2N1 [1/10] | > 7.00 |  | 

Next, values leading:

pIC50 [1] | pIC50 (activated MMP-8 enzyme) | pIC50 [2] | SMILES
> 7.00 | > 6.60 | > 6.60 | O=C1COc2ccc(CNC(=O)c3nc4sc5c(c4c(=O)[nH]3)CCC3(C5)OCCO3)cc2N1 [1/32]
> 7.00 | > 6.60 |  | Cc1sc2nc(C(=O)NCc3cc(F)c4c(c3)NC(=O)CO4)[nH]c(=O)c2c1C [1/12]
> 7.00 | > 6.60 |  | Cc1sc2nc(C(=O)NCc3ccc4c(c3)NC(=S)CO4)[nH]c(=O)c2c1C [1/17]
> 7.00 |  |  | O=C(NCc1ccc2c(c1)-n1cnnc1CO2)c1nc2ccccc2c(=O)[nH]1 [1/18]
> 7.00 | 4.70 to 6.60 |  | Cc1sc2nc(C(=O)NCc3cnc4c(c3)NC(=O)CO4)[nH]c(=O)c2c1C [1/15]
> 7.00 | 4.70 to 6.60 |  | Cn1c(=O)oc2ccc(CNC(=O)c3nc4ccccc4c(=O)[nH]3)cc21 [1/7]
> 7.00 | 4.70 to 6.60 |  | CC1Oc2ccc(CNC(=O)c3nc4ccccc4c(=O)[nH]3)cc2NC1=O (stereo not drawn) [1/6]
> 7.00 | > 6.60 |  | O=C1COc2ccc(CNC(=O)c3nc4c(c(=O)[nH]3)C3CCC4CC3)cc2N1 [Example 3]
> 7.00 |  |  | O=C1COc2c(F)cc(CNC(=O)c3nc4ccc(F)cc4c(=O)[nH]3)cc2N1 [1/11]
> 7.00 |  | 4.70 to 6.60 | CC1N=C(C(=O)NCc2ccc3c(c2)NC(=O)CO3)NC(=O)C1c1ccccc1 (stereo not drawn) [1/29]
> 7.00 | > 6.60 | > 6.60 | O=C1COc2ccc(CNC(=O)c3nc4ccccc4c(=O)[nH]3)cc2N1 [1/4]
> 7.00 |  |  | O=C1COc2ccc(CNC(=O)c3ncc(-c4ccc(F)cc4)c(=O)[nH]3)cc2N1 [1/33]

Source: US20080221095A1, “Metalloprotease inhibitors containing a heterocyclic moiety” (priority 2007, published 2008)
